Data: PubChem BioAssay AID2060493 (Molecular Pharmacology Branch, DTP, NCI, 2025)

Test system: 616215-338-R-J1-PDC tumor spheroids, viability
Assay: Anticancer human tumor 616215-338-R-J1-PDC patient-derived colon adenocarcinoma cell line growth inhibition [GQUAD]
Conditions: spheroids with HUVEC and MSC; for IC50: curve of first compound; for viability, T/C: stronger effect = lower value
Outline: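 Viability of tumor cells grown as complex spheroids with endothelial and stromal cells, exposed to drug combinations. Top concentration at or near clinical Cmax (else 10 microM), diluted in half-log increments.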

[1] = second compound 0.0316 µM, first compound 0.0316 µM
[2] = second compound 0.0316 µM, first compound 0.316 µM
[3] = second compound 0.1 µM, first compound 0.0316 µM
[4] = second compound 0.1 µM, first compound 0.316 µM
[5] = second compound 0.316 µM, first compound 0.0316 µM
[6] = second compound 0.316 µM, first compound 0.316 µM
[7] = second compound 1 µM, first compound 0.0316 µM
[8] = second compound 1 µM, first compound 0.316 µM
[9] = second compound 3.16 µM, first compound 0.0316 µM
[10] = second compound 3.16 µM, first compound 0.316 µM
[11] = second compound 10 µM, first compound 0.0316 µM
[12] = second compound 10 µM, first compound 0.316 µM
[13] = second compound 0.0316 µM, first compound 0.1 µM
[14] = second compound 0.0316 µM, first compound 1 µM
[15] = second compound 0.0316 µM, first compound 3.16 µM
[16] = second compound 0.0316 µM, first compound 10 µM
[17] = second compound 0.1 µM, first compound 0.1 µM
[18] = second compound 0.1 µM, first compound 1 µM
[19] = second compound 0.1 µM, first compound 3.16 µM
[20] = second compound 0.1 µM, first compound 10 µM
[21] = second compound 0.316 µM, first compound 0.1 µM
[22] = second compound 0.316 µM, first compound 1 µM
[23] = second compound 0.316 µM, first compound 3.16 µM
[24] = second compound 0.316 µM, first compound 10 µM
[25] = second compound 1 µM, first compound 0.1 µM
[26] = second compound 1 µM, first compound 1 µM
[27] = second compound 1 µM, first compound 3.16 µM
[28] = second compound 1 µM, first compound 10 µM
[29] = second compound 3.16 µM, first compound 0.1 µM
[30] = second compound 3.16 µM, first compound 1 µM
[31] = second compound 3.16 µM, first compound 3.16 µM
[32] = second compound 3.16 µM, first compound 10 µM
[33] = second compound 10 µM, first compound 0.1 µM
[34] = second compound 10 µM, first compound 1 µM
[35] = second compound 10 µM, first compound 3.16 µM
[36] = second compound 10 µM, first compound 10 µM
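Also: spheroids exposed to agents for 7 days before readout.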
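For viability, T/C in this document: percent viability relative to DMSO vehicle control wells taken as 100%.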

## CC[C@@]1(O)C(=O)OCc2c1cc1n(c2=O)Cc2cc3c(CN(C)C)c(O)ccc3nc2-1 + Cc1cnc(CNC(=O)c2c(=O)c3ccc(N4CCCN(C)CC4)nc3n3c2sc2ccccc23)cn1
Second compound 0.0316 µM
  IC50: 0.274 µM
Second compound 0.1 µM
  IC50: 0.142 µM
Second compound 0.316 µM
  IC50: < 0.000999 µM
Second compound 1 µM
  IC50: < 0.000999 µM
Second compound 3.16 µM
  IC50: < 0.000999 µM
Second compound 10 µM
  IC50: < 0.000999 µM
Second compound 0.0316 µM, first compound 0.000999 µM
  viability, T/C: 116%
Second compound 0.0316 µM, first compound 0.00316 µM
  viability, T/C: 102%
Second compound 0.0316 µM, first compound 0.00999 µM
  viability, T/C: 92.5%
[1]
  viability, T/C: 94.9%
Second compound 0.0316 µM, first compound 0.0999 µM
  viability, T/C: 87%
[2]
  viability, T/C: 43.7%
Second compound 0.1 µM, first compound 0.000999 µM
  viability, T/C: 81.5%
Second compound 0.1 µM, first compound 0.00316 µM
  viability, T/C: 68.1%
Second compound 0.1 µM, first compound 0.00999 µM
  viability, T/C: 64.2%
[3]
  viability, T/C: 74.8%
Second compound 0.1 µM, first compound 0.0999 µM
  viability, T/C: 54.1%
[4]
  viability, T/C: 35.4%
Second compound 0.316 µM, first compound 0.000999 µM
  viability, T/C: 38.5%
Second compound 0.316 µM, first compound 0.00316 µM
  viability, T/C: 45.3%
Second compound 0.316 µM, first compound 0.00999 µM
  viability, T/C: 39.2%
[5]
  viability, T/C: 40.5%
Second compound 0.316 µM, first compound 0.0999 µM
  viability, T/C: 53.4%
[6]
  viability, T/C: 40.2%
Second compound 1 µM, first compound 0.000999 µM
  viability, T/C: 36.9%
Second compound 1 µM, first compound 0.00316 µM
  viability, T/C: 38.4%
Second compound 1 µM, first compound 0.00999 µM
  viability, T/C: 32.4%
[7]
  viability, T/C: 27.7%
Second compound 1 µM, first compound 0.0999 µM
  viability, T/C: 24.9%
[8]
  viability, T/C: 25.3%
Second compound 3.16 µM, first compound 0.000999 µM
  viability, T/C: 37.1%
Second compound 3.16 µM, first compound 0.00316 µM
  viability, T/C: 36.5%
Second compound 3.16 µM, first compound 0.00999 µM
  viability, T/C: 31.6%
[9]
  viability, T/C: 34.2%
Second compound 3.16 µM, first compound 0.0999 µM
  viability, T/C: 29.3%
[10]
  viability, T/C: 18.5%
Second compound 10 µM, first compound 0.000999 µM
  viability, T/C: 31.9%
Second compound 10 µM, first compound 0.00316 µM
  viability, T/C: 25%
Second compound 10 µM, first compound 0.00999 µM
  viability, T/C: 42.2%
[11]
  viability, T/C: 24.2%
Second compound 10 µM, first compound 0.0999 µM
  viability, T/C: 25.3%
[12]
  viability, T/C: 16.1%

## COc1cccc2c1C(=O)c1c(O)c3c(c(O)c1C2=O)CC(O)(C(=O)CO)CC3OC1CC(N)C(O)C(C)O1 (stereo unspecified) + Cc1cnc(CNC(=O)c2c(=O)c3ccc(N4CCCN(C)CC4)nc3n3c2sc2ccccc23)cn1
Second compound 0.0316 µM
  IC50: 0.381 µM
Second compound 0.1 µM
  IC50: 0.41 µM
Second compound 0.316 µM
  IC50: < 0.0316 µM
Second compound 1 µM
  IC50: < 0.0316 µM
Second compound 3.16 µM
  IC50: < 0.0316 µM
Second compound 10 µM
  IC50: < 0.0316 µM
[1]
  viability, T/C: 102%
[13]
  viability, T/C: 54.7%
[2]
  viability, T/C: 50.2%
[14]
  viability, T/C: 40.5%
[15]
  viability, T/C: 20.2%
[16]
  viability, T/C: 1.32%
[3]
  viability, T/C: 56%
[17]
  viability, T/C: 67.4%
[4]
  viability, T/C: 49.7%
[18]
  viability, T/C: 39.2%
[19]
  viability, T/C: 19.4%
[20]
  viability, T/C: 1.25%
[5]
  viability, T/C: 38.2%
[21]
  viability, T/C: 39%
[6]
  viability, T/C: 32%
[22]
  viability, T/C: 27.7%
[23]
  viability, T/C: 19.9%
[24]
  viability, T/C: 0.1%
[7]
  viability, T/C: 28.1%
[25]
  viability, T/C: 37.7%
[8]
  viability, T/C: 34.5%
[26]
  viability, T/C: 26%
[27]
  viability, T/C: 12.6%
[28]
  viability, T/C: 0.1%
[9]
  viability, T/C: 29.8%
[29]
  viability, T/C: 28.1%
[10]
  viability, T/C: 35.1%
[30]
  viability, T/C: 16.4%
[31]
  viability, T/C: 15.3%
[32]
  viability, T/C: 0.16%
[11]
  viability, T/C: 28%
[33]
  viability, T/C: 20.8%
[12]
  viability, T/C: 28.3%
[34]
  viability, T/C: 23.1%
[35]
  viability, T/C: 3.24%
[36]
  viability, T/C: 0.25%

## Nc1ccn(C2OC(CO)C(O)C2(F)F)c(=O)n1 (stereo unspecified) + Cc1cnc(CNC(=O)c2c(=O)c3ccc(N4CCCN(C)CC4)nc3n3c2sc2ccccc23)cn1
Second compound 0.0316 µM
  IC50: < 0.0316 µM
Second compound 0.1 µM
  IC50: 0.109 µM
Second compound 0.316 µM
  IC50: < 0.0316 µM
Second compound 1 µM
  IC50: < 0.0316 µM
Second compound 3.16 µM
  IC50: < 0.0316 µM
Second compound 10 µM
  IC50: < 0.0316 µM
[1]
  viability, T/C: 35.4%
[13]
  viability, T/C: 35.6%
[2]
  viability, T/C: 16.7%
[14]
  viability, T/C: 14.6%
[15]
  viability, T/C: 17.8%
[16]
  viability, T/C: 14.1%
[3]
  viability, T/C: 48.2%
[17]
  viability, T/C: 56.5%
[4]
  viability, T/C: 20.4%
[18]
  viability, T/C: 16.5%
[19]
  viability, T/C: 19.9%
[20]
  viability, T/C: 14.9%
[5]
  viability, T/C: 45.8%
[21]
  viability, T/C: 26.8%
[6]
  viability, T/C: 17.7%
[22]
  viability, T/C: 20.3%
[23]
  viability, T/C: 15.1%
[24]
  viability, T/C: 17%
[7]
  viability, T/C: 32.5%
[25]
  viability, T/C: 30.7%
[8]
  viability, T/C: 24.1%
[26]
  viability, T/C: 28.2%
[27]
  viability, T/C: 18.3%
[28]
  viability, T/C: 18.4%
[9]
  viability, T/C: 28.4%
[29]
  viability, T/C: 41.8%
[10]
  viability, T/C: 24%
[30]
  viability, T/C: 20.4%
[31]
  viability, T/C: 16.4%
[32]
  viability, T/C: 23.5%
[11]
  viability, T/C: 28.4%
[33]
  viability, T/C: 28.8%
[12]
  viability, T/C: 22.4%
[34]
  viability, T/C: 21%
[35]
  viability, T/C: 20%
[36]
  viability, T/C: 18.5%
